Laboratory results from publication PMC11539244, “Relative inhibitory activities of newly developed diazabicyclooctanes, boronic acid derivatives, and penicillin-based sulfone β-lactamase inhibitors against broad-spectrum AmpC β-lactamases” (Antimicrobial Agents and Chemotherapy, 2024).
Like-named read-outs stand apart in the source and are kept apart here.

What was measured:
[1] = test system: E. coli TOP10; test: microbe, parasite or virus in culture; type: cell-based; conditions: Escherichia coli
Experimental: (§1) In order to assess the relative inhibitory activities of those BLI against AmpC β-lactamases, the corresponding blaampC genes without the original promoter sequences were amplified by PCR with specific primers, and corresponding amplicons were cloned into plasmid pUCp24, as described previously ([12], [13]). […] Cultures of E. coli TOP10 harboring recombinant plasmids and therefore producing the different AmpC tested were grown overnight at 37°C in Luria-Bertani agar medium containing amoxicillin (AMX) (50 µg/mL). The activity of the following acquired class C β-lactamases could therefore be evaluated, namely, ACC-1 (originally from Hafnia spp.), FOX-5 (from Aeromonas allosaccharophila), CMY-2 and CMY-42 (from Citrobacter spp.), DHA-1 (from Morganella morganii), ACT-7 and ACT-17 (from Enterobacter asburiae), MIR-17 (from Enterobacter roggenkampii), MOX-2 (from Aeromonas caviae), and LAT-1 (from Citrobacter portucalensis) ([5]). […] Altogether, these enzymes were chosen as representatives of clinically relevant class C β-lactamases being sources of intrinsic or acquired resistance to broad-spectrum β-lactams among most of the commonly identified Gram-negative bacteria in clinical practice.
(§2) MICs were determined in triplicate by broth microdilution (BMD) for CAZ and AMX, as well as their combinations with each β-lactamase inhibitor. CAZ, AMX, and CLA were purchased from Sigma-Aldrich (St. Louis, MO, USA). All others inhibitors (TAZ HY-W009168, AVI HY-14879, REL HY-16752, VAB HY-19930, NAC HY-109008, ZID HY-120859, TAN HY-109124, XER HY-136072, DUR HY-117974, EMT HY-103095) were purchased from MedChem Express (Luzern, Switzerland). The concentration of each β-lactamase inhibitor was chosen as the concentration used in the respective BL/BLI combination under development or commercially available, according to EUCAST or CLSI ([18], [19]). […] BMD assays were performed in cation-adjusted Mueller-Hinton (MH) broth (Bio-Rad, Marnes-la-Coquette, France) for all antibiotics or antibiotic combinations listed above, according to the EUCAST guidelines ([20]).

[2] = target: ACC-1 (Hafnia alvei, UniProt Q9XB24); test: IC50 of β-lactamase inhibitors, crude extract, ACC-1; type: biochemical
Chain of ACC-1 (Q9XB24 entry or part of it): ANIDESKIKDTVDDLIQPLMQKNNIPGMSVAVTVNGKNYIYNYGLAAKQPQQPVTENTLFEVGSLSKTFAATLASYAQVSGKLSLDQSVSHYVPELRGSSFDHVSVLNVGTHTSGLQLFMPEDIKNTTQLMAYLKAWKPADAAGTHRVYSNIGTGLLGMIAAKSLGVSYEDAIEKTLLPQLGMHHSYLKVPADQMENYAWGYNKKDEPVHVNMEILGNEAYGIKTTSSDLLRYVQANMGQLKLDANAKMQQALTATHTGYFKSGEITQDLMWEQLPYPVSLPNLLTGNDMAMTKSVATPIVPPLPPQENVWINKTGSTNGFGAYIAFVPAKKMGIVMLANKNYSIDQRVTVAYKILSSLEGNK

[3] = target: FOX-5 (Aeromonas allosaccharophila, UniProt Q9F4K3); test: IC50 of β-lactamase inhibitors, crude extract, FOX-5; type: biochemical
Chain of FOX-5 (Q9F4K3 entry or part of it): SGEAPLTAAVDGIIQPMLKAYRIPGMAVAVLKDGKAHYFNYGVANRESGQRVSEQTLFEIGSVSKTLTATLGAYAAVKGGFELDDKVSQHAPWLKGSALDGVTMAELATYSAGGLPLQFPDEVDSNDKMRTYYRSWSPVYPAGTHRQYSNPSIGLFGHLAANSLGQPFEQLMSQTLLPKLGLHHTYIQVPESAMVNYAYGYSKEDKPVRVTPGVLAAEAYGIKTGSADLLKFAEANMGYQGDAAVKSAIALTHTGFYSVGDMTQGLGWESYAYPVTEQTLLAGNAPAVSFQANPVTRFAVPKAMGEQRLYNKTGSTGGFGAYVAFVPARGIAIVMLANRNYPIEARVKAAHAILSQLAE

[4] = target: ACT-7 (Enterobacter asburiae, UniProt B6V6L3); test: biochemical
Chain of ACT-7 (B6V6L3 entry or part of it): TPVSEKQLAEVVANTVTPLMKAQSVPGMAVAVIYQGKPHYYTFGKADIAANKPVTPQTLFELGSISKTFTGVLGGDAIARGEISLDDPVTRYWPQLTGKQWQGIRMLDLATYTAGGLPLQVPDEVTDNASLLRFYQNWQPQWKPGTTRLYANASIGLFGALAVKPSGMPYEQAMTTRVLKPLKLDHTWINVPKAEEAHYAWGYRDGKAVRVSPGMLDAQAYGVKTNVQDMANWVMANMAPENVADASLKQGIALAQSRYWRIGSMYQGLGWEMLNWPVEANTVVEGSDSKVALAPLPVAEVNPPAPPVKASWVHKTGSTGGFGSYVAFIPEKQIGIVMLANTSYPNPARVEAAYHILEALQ

[5] = target: ACT-17 (Enterobacter asburiae, UniProt P05364); type: biochemical; conditions: crude extract of E. coli TOP10 recombinant strain, mean of triplicate
Chain of ACT-17 (P05364 21-381): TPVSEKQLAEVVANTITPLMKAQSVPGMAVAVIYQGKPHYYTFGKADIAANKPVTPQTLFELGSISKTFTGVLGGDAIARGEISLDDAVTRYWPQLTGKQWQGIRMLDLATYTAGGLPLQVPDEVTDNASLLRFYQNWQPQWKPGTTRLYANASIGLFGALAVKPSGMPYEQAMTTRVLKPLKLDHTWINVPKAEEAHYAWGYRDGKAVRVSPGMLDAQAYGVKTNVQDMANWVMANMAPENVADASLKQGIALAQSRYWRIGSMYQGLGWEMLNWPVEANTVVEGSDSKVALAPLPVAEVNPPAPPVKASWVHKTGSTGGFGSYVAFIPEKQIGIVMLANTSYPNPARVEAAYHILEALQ

[6] = target: T1, CMY-2 (Klebsiella pneumoniae, UniProt Q48434); test: biochemical; parameters: species or system Citrobacter spp.
T1 construct: made in house; host or cells: E. coli TOP10, plasmid pUCp24

[7] = target: T2, CMY-42 (Klebsiella pneumoniae, UniProt Q48434, V231S); test: biochemical; parameters: species or system Citrobacter spp.
T2 construct: made in house; host or cells: E. coli TOP10, plasmid pUCp24
T2 sequence (Q48434 21-381 V231S): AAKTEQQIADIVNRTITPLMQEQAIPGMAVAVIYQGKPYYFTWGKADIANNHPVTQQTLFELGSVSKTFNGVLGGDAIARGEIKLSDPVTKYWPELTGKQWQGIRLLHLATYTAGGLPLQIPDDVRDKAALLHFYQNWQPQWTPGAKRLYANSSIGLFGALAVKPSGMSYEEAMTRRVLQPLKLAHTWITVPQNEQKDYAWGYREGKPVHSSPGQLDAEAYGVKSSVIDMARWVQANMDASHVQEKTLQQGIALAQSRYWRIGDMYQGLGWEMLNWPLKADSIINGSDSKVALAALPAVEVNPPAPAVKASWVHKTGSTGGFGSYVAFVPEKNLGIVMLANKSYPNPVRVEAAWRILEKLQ

[8] = target: DHA-1 (Morganella morganii, UniProt P94958); test: IC50 of β-lactamase inhibitors, crude extract, DHA-1; type: biochemical
[9] = target: LAT-1 (Citrobacter portucalensis, UniProt Q48443); test: biochemical
Chain of LAT-1 (Q48443 entry or part of it): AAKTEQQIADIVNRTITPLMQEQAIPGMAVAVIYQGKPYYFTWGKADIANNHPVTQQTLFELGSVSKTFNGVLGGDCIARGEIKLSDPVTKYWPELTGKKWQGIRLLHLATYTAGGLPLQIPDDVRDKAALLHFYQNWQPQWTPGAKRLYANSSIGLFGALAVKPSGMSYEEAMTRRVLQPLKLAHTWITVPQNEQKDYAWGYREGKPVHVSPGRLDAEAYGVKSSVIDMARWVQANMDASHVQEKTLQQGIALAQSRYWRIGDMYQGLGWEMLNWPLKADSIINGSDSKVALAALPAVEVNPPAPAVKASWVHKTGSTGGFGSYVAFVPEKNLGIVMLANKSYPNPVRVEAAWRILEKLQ

[10] = target: MOX-2 (Aeromonas caviae, UniProt Q9L3G2); test: IC50 of β-lactamase inhibitors, crude extract, MOX-2; type: biochemical
Chain of MOX-2 (Q9L3G2 entry or part of it): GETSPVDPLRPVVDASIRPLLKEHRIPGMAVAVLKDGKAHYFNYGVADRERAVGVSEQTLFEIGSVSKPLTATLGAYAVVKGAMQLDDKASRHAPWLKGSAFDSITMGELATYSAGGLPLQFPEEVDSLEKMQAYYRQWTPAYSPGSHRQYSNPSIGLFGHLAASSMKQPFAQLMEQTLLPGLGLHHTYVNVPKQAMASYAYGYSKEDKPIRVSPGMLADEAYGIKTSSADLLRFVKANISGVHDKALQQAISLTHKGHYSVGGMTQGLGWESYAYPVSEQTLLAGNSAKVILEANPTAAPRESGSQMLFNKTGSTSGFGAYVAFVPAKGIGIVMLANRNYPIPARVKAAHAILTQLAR

[11] = target: MIR-17; test: IC50 of β-lactamase inhibitors, crude extract, MIR-17; type: biochemical, Enterobacter roggenkampii; conditions: crude extract of E. coli TOP10 recombinant strain, mean of triplicate
[12] = target: Ear-1 (Klebsiella aerogenes, UniProt A0A0H3FRQ3); test: IC50 of β-lactamase inhibitors, crude extract, Ear-1; type: biochemical
Chain of Ear-1 (A0A0H3FRQ3 entry or part of it): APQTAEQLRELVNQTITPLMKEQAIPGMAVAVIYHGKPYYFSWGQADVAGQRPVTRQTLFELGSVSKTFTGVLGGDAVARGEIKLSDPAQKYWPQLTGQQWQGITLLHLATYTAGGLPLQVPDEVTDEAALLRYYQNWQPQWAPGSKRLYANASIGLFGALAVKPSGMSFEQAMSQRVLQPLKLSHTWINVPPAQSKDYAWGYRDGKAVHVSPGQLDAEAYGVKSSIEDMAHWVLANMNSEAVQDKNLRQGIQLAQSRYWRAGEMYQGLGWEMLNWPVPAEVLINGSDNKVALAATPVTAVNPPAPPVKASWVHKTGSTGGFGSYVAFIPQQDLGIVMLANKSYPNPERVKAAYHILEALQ

[13] = target: SRT-1 (Serratia marcescens, UniProt P18539); test: IC50 of β-lactamase inhibitors, crude extract, SRT-1; type: biochemical; conditions: crude extract of E. coli TOP10 recombinant strain, mean of triplicate
Chain of SRT-1 (P18539 22-376): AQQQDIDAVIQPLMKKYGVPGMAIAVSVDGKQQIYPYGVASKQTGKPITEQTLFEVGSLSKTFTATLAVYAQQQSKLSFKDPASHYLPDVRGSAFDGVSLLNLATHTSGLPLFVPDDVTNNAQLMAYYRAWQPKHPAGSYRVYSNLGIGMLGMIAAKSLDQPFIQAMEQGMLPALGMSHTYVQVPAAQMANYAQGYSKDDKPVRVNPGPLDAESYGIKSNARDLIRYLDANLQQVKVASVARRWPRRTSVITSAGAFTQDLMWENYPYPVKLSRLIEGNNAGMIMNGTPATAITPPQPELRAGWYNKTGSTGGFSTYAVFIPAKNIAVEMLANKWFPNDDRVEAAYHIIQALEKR

[14] = target: T3, PDC-1 (Pseudomonas aeruginosa, UniProt P24735); test: biochemical; parameters: species or system P. aeruginosa
T3 construct: made in house; host or cells: E. coli TOP10, plasmid pUCp24
T3 sequence (P24735 27-397): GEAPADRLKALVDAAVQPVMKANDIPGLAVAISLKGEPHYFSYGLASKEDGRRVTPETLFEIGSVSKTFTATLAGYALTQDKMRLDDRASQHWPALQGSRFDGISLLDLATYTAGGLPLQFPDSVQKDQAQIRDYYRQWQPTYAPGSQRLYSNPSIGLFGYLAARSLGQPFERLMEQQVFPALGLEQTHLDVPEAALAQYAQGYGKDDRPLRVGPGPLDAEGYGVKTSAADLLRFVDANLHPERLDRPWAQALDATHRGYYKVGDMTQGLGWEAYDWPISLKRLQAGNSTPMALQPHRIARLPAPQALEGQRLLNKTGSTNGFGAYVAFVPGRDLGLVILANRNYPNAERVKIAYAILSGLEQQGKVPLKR

[15] = target: T4, PDC-5 (Pseudomonas aeruginosa, UniProt P24735, R79Q/T105A); test: biochemical; parameters: species or system P. aeruginosa
T4 construct: made in house; host or cells: E. coli TOP10, plasmid pUCp24
T4 sequence (P24735 27-397 R79Q/T105A): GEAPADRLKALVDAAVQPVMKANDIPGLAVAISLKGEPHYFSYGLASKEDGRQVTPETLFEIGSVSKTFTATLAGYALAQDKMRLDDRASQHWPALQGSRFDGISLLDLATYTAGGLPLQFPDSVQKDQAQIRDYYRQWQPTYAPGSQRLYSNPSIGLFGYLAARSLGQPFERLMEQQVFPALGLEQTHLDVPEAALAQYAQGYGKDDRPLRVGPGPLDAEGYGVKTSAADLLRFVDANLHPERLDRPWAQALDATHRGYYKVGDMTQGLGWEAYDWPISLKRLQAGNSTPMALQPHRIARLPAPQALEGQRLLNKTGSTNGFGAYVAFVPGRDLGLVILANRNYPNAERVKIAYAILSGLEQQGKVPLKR

[16] = target: PDC-382 (Pseudomonas aeruginosa, UniProt P24735, T96I); test: biochemical; parameters: species or system P. aeruginosa
Chain of PDC-382 (P24735 27-397 T96I): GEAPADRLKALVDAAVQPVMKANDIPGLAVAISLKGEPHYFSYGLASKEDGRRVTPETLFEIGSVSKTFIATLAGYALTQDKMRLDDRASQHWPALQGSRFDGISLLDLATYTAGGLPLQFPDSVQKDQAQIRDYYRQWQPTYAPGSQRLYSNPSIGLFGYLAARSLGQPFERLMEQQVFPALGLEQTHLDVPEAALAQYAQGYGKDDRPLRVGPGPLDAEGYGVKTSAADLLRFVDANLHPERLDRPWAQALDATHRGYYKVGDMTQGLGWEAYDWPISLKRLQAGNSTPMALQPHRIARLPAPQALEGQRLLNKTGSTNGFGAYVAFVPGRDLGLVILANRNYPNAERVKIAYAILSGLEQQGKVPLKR

[17] = target: ADC-50 (Acinetobacter baumannii, UniProt Q6DRA1); test: IC50 of β-lactamase inhibitors, crude extract, ADC-50; type: biochemical, A. baumannii
[18] = target: YRC-1 (Yersinia ruckeri, UniProt Q20I87); test: IC50 of β-lactamase inhibitors, crude extract, YRC-1; type: biochemical
Chain of YRC-1 (Q20I87 entry or part of it): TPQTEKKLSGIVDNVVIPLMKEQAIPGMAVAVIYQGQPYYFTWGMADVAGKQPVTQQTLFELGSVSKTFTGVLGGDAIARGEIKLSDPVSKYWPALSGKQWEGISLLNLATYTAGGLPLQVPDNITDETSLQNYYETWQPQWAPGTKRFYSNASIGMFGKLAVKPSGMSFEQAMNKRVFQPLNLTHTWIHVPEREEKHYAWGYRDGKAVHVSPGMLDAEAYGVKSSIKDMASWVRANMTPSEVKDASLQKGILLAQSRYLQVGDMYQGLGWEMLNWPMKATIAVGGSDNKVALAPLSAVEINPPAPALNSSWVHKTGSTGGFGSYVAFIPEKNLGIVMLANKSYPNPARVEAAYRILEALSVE

[19] = test system: E. coli ATCC 25922; test: MIC by broth microdilution, E. coli ATCC 25922; type: cell-based; conditions: Escherichia coli, ATCC25922, E. coli ATCC 25922, β-lactam alone or with inhibitor at fixed conc.: CLA 2 µg/mL, TZB, AVI, REL, NAC, ZID, DUR, TAN 4 µg/mL, VAB, XER, EMT 8 µg/mL, read-out: MICs
Experimental: as §2

[20] = test system: E. coli ACC-1 (E. coli TOP10 recombinant strain); test: microbe, parasite or virus in culture; type: cell-based; conditions: Escherichia coli, read-out: MICs
Experimental: as §1, §2

[21] = test system: E. coli ACT-17 (E. coli TOP10 recombinant strain); test: microbe, parasite or virus in culture; type: cell-based; conditions: Escherichia coli, read-out: MICs
Experimental: as §1, §2

[22] = test system: E. coli ACT-7 (E. coli TOP10 recombinant strain); test: microbe, parasite or virus in culture; type: cell-based; conditions: Escherichia coli, read-out: MICs
Experimental: as §1, §2

[23] = test system: E. coli CMY-2 (E. coli TOP10 recombinant strain); test: microbe, parasite or virus in culture; type: cell-based; conditions: Escherichia coli, read-out: MICs
Experimental: as §1, §2

[24] = test system: E. coli CMY-42 (E. coli TOP10 recombinant strain); test: microbe, parasite or virus in culture; type: cell-based; conditions: Escherichia coli, read-out: MICs
Experimental: as §1, §2

[25] = test system: E. coli DHA-1 (E. coli TOP10 recombinant strain); test: microbe, parasite or virus in culture; type: cell-based; conditions: Escherichia coli, read-out: MICs
Experimental: as §1, §2

[26] = test system: E. coli Ear-1 (E. coli TOP10 recombinant strain); test: microbe, parasite or virus in culture; type: cell-based; conditions: Escherichia coli, read-out: MICs
Experimental: as §1, §2

[27] = test system: E. coli FOX-5 (E. coli TOP10 recombinant strain); test: microbe, parasite or virus in culture; type: cell-based; conditions: Escherichia coli, read-out: MICs
Experimental: as §1, §2

[28] = test system: E. coli LAT-1 (E. coli TOP10 recombinant strain); test: microbe, parasite or virus in culture; type: cell-based; conditions: Escherichia coli, read-out: MICs
Experimental: as §1, §2

[29] = test system: E. coli MIR-17 (E. coli TOP10 recombinant strain); test: microbe, parasite or virus in culture; type: cell-based; conditions: Escherichia coli, read-out: MICs
Experimental: as §1, §2

[30] = test system: E. coli MOX-2 (E. coli TOP10 recombinant strain); test: microbe, parasite or virus in culture; type: cell-based; conditions: Escherichia coli, read-out: MICs
Experimental: as §1, §2

[31] = test system: E. coli PDC-1 (E. coli TOP10 recombinant strain); test: microbe, parasite or virus in culture; type: cell-based; conditions: Escherichia coli, read-out: MICs
Experimental: as §1, §2

[32] = test system: E. coli PDC-382 (E. coli TOP10 recombinant strain); test: microbe, parasite or virus in culture; type: cell-based; conditions: Escherichia coli, read-out: MICs
Experimental: as §1, §2

[33] = test system: E. coli PDC-5 (E. coli TOP10 recombinant strain); test: microbe, parasite or virus in culture; type: cell-based; conditions: Escherichia coli, read-out: MICs
Experimental: as §1, §2

[34] = test system: E. coli SRT-2 (E. coli TOP10 recombinant strain); test: microbe, parasite or virus in culture; type: cell-based; conditions: Escherichia coli, read-out: MICs
Experimental: as §1, §2

[35] = test system: E. coli YRC-1 (E. coli TOP10 recombinant strain); test: microbe, parasite or virus in culture; type: cell-based; conditions: Escherichia coli, read-out: MICs
Experimental: as §1, §2

[36] = test system: E. coli ADC-50 (E. coli TOP10 recombinant strain); test: microbe, parasite or virus in culture; type: cell-based, Escherichia coli
Experimental: as §1, §2

[37] = TOP10, E. coli TOP 10, β-lactamase inhibitor alone, read-out: MIC values of inhibitor alone
[38] = ADC-50, crude extract of E. coli TOP10 recombinant strain, mean of triplicate

SMILES	MIC [1, 37]	IC50 [2]	IC50 [3]	IC50 [4]	IC50 [5]	IC50 [6]	IC50 [7]	IC50 [8]	IC50 [9]	IC50 [10]	IC50 [11]	IC50 [12]	IC50 [13]	IC50 [14]	IC50 [15]	IC50 [16]	IC50 [17, 38]	IC50 [18]	inhibition of ADC-50 (in words) ([17]; ADC-50 of A. baumannii)	also measured
CC1=C[C@@H]2CN(C(=O)N2OS(=O)(=O)O)[C@@H]1C(N)=O [Durlobactam, durlobactam]	0.125 µg/mL	5 nM	22 nM	4 nM	3 nM	4 nM	11 nM	4 nM	5 nM	55 nM	5 nM	6 nM	22 nM	9 nM	13 nM	100 nM	170 nM	5 nM		IC50 ([17]; read-out: IC50 value, ADC-50 of A. baumannii): 0.17 nM
NCCONC(=O)[C@@H]1CC[C@@H]2CN1C(=O)N2OS(=O)(=O)O [Nacubactam, nacubactam]	4 µg/mL	450 nM	5300 nM	370 nM	290 nM	420 nM	1700 nM	500 nM	290 nM	4100 nM	600 nM	280 nM	70000 nM	5100 nM	1200 nM	34000 nM	> 100000 nM	130 nM	not significantly inhibited	
CC1(C)S[C@@H]2[C@H](NC(=O)[C@H](N)c3ccc(O)cc3)C(=O)N2[C@H]1C(=O)O [Amoxicillin, amoxicillin]																				MIC [19]: 4 µg/mL; MIC [20]: 32 µg/mL; MIC [21]: 512 µg/mL; MIC [22]: 1020 µg/mL; MIC [23]: > 1020 µg/mL; MIC [24]: 1020 µg/mL; MIC [25]: 1020 µg/mL; MIC [26]: > 1020 µg/mL; MIC [27]: 8 µg/mL; MIC [28]: 512 µg/mL; MIC [29]: 128 µg/mL; MIC [30]: 8 µg/mL; MIC [31]: 16 µg/mL; MIC [32]: 16 µg/mL; MIC [33]: 16 µg/mL; MIC [34]: 128 µg/mL; MIC ([1]; TOP10, read-out: MICs): 1 µg/mL; MIC [35]: 512 µg/mL; MIC ([36]; Escherichia coli, read-out: MICs): 512 µg/mL
NCCN[C@H]1CC[C@H](CC(=O)N[C@H]2Cc3cccc(C(=O)O)c3OB2O)CC1 [Taniborbactam, taniborbactam]											30 nM								not significantly inhibited	sensitivity of ADC-50 β-lactamase to inhibitor (in words) ([36]; ADC-50 (cAmpC of A. baumannii), susceptibility testing of recombinant E. coli): resistant; IC50 ([2]; ACC-1, crude extract of E. coli TOP10 recombinant strain, mean of triplicate, read-out: IC50): 180 nM; IC50 ([3]; FOX-5, crude extract of E. coli TOP10 recombinant strain, mean of triplicate, read-out: IC50): 160 nM; IC50 ([4]; ACT-7, crude extract of E. coli TOP10 recombinant strain, mean of triplicate, read-out: IC50): 190 nM; IC50 ([5]; read-out: IC50): 210 nM; IC50 ([7]; CMY-42, crude extract of E. coli TOP10 recombinant strain, mean of triplicate, read-out: IC50): 680 nM; IC50 ([8]; DHA-1, crude extract of E. coli TOP10 recombinant strain, mean of triplicate, read-out: IC50): 120 nM; IC50 ([9]; LAT-1, crude extract of E. coli TOP10 recombinant strain, mean of triplicate, read-out: IC50): 230 nM; IC50 ([10]; MOX-2, crude extract of E. coli TOP10 recombinant strain, mean of triplicate, read-out: IC50): 320 nM; IC50 ([12]; Ear-1, crude extract of E. coli TOP10 recombinant strain, mean of triplicate, read-out: IC50): 110 nM; IC50 ([13]; read-out: IC50): 60 nM; IC50 ([14]; PDC-1, crude extract of E. coli TOP10 recombinant strain, mean of triplicate, read-out: IC50): 1100 nM; IC50 ([15]; PDC-5, crude extract of E. coli TOP10 recombinant strain, mean of triplicate, read-out: IC50): 510 nM; IC50 ([16]; PDC-382, crude extract of E. coli TOP10 recombinant strain, mean of triplicate, read-out: IC50): 5000 nM; IC50 ([17]; ADC-50, crude extract of E. coli TOP10 recombinant strain, mean of triplicate, read-out: IC50): 26000 nM; IC50 ([18]; YRC-1, crude extract of E. coli TOP10 recombinant strain, mean of triplicate, read-out: IC50): 100 nM
